Reference: patent US4778802A, “Heterocyclic compounds” (John Wyeth & Brother, Ltd., priority 1985, dated 1988)
Like-named read-outs stand apart in the source and are kept apart here.

Experiments:
[1] = system: pCA-induced 5-HT syndrome; assay: Inhibition of p-chloroamphetamine (pCA)-induced stereotypy in rats, p.o.; type: in vivo, male Sprague-Dawley rats; details: for inhibition of syndrome at 50 mg/kg: 50 mg/kg p.o.; for ED50: Rattus norvegicus, po; for antagonism of pCA-induced stereotypy (in words): 5 dose levels
Description: Representative compounds of this invention were tested for their ability to inhibit pCA induced syndrome in rats by the standard procedure described below:
(§1) Inhibition of p-chloroamphetamine (pCA)-induced stereotypy
Vehicle or drug (5 dose levels) were administered p.o. to six groups of 6-8 male Sprague-Dawley rats (300-400 g) followed, 90 minutes later, by pCA (10 mg/kg i.p.). The animals were then placed in individual observation chambers and, 30 minutes after pCA administration, the intensity of the pCA-induced 5-HT syndrome was assessed according to the following scoring system:
head-weaving 0, 1, 2 or 3 according to
fore-paw treading severity
(§2) tremor 0 (absent) or 1 (present)
Therefore, the maximum score for each animal was 10.
(§3) The inhibition of pCA induced stereotypy is calculated for each dose level as follows: [formula] where
C=control group total score at 30 minutes post pCA.
T=group total score of treated group at 30 minutes post pCA.
For each dose a % effect is calculated.
The results obtained from the tests using 5 different dose levels of the drug allow the ED50 value (i.e. the dose required to produce 50% inhibition of pCA induced stereotypy) to be calculated.
The test was carried out using the free bases except for compound C which was tested in the form if its maleate salt and the result corrected for amount of active material.

[2] = system: 5-HT uptake into rat brain synaptosomes; assay: Inhibition of 5-HT uptake into rat brain synaptosomes; type: biochemical, male Sprague Dawley rats; details: for IC50: 37°, 4 minutes; for Selectivity Ratio (5-HT uptake relative to NA uptake): from IC50 NA and IC50 5-HT
Description: (§4) In vitro tests have shown that compounds of formula I also have a marked degree of selectivity in inhibiting uptake of 5-HT into rat brain synaptosomes relative to uptake of ^3 H noradrenaline. The test procedure involved obtaining synaptosomal preparations from male Sprague Dawley rats according to the method of Grey and Whittaker* as modified by Wood & Wyllie.** Aliquots of the synaptosomal preparation were then incubated with tritrated noradrenaline (NA) or 5-HT at a temperature of 37° for 4 minutes. The active synaptosomal accumulation of labelled substrate was measured by filtration and scintillation counting. The effect at a range of concentrations of test compound enabled IC50 values and selectivity ratios to be calculated.

[3] = system: 3H noradrenaline (NA) uptake into rat brain synaptosomes; assay: Inhibition of 3H noradrenaline (NA) uptake into rat brain synaptosomes; type: biochemical, male Sprague Dawley rats; details: 37°, 4 minutes
Description: as §4

[4] = system: 5-hydroxy-L-tryptophan induced behavioural syndrome; assay: Potentiation of 5-hydroxytryptophan (5-HTP)-induced behaviour in rats; type: in vivo, male Sprague-Dawley rats; details: Rattus norvegicus, po
Description: The compounds B and C were also tested for their ability to potentiate 5-hydroxy-L-tryptophan induced behavioural syndrome in rats. The test procedure is described below (updated from that described in UK No. 2073179B).
Potentiation of 5-hydroxytryptophan (5-HTP)-induced behaviour
Groups of 10 male Sprague-Dawley rats (310-360 g) were dosed p.o. with vehicle or drugs. Ninety minutes later 5-HTP (50 mg/kg s.c.) was administered and the animals placed in individual observation chambers (peripheral decarboxylation was prevented by 25 mg/kg i.p. carbidopa administered 60 minutes before 5-HTP). Head shakes were counted over the period 30-45 minutes after 5-HTP and the intensity of the 5-HT syndrome was scored immediately afterwards using the system described for the pCA procedure above. Percentage potentiation of syndrome was calculated as follows: […]
0, 1, 2 or 3 according to severity
as §2
Percentage potentiation was calculated from the following: [formula]

pCA-induced stereotypy = assay: Duration of action: inhibition of pCA-induced stereotypy at various times after dosing; type: in vivo, male Sprague-Dawley rats; details: 6 mg/kg p.o.
Description: as §1
The animals were then placed in individual observation chambers and, 30 minutes after pCA administration, the intensity of the pCA-induced 5-HT syndrome was assessed according to the following scoring system:
as §3

pCA syndrome = assay: Related duration test on pCA syndrome (with modified scoring); type: in vivo; details: 15 mg/kg
[5] = rats, p.o., 90 min before pCA 10 mg/kg i.p., scored 30 min after pCA, free bases except C (maleate, corrected for active material), read-out: ED50 (dose required to produce 50% inhibition of pCA induced stereotypy)
[6] = rats, p.o., 90 min before 5-HTP 50 mg/kg s.c., carbidopa 25 mg/kg i.p., value of C corrected for amount of active ingredient, read-out: ED50 (potentiation of 5-HTP-induced behavioural syndrome)

| Compound | inhibition of syndrome at 50 mg/kg ([1]; rats) | ED50 [1, 5] [mg/kg] | antagonism of pCA-induced stereotypy (in words) ([1]; rats, p.o.) | IC50 [2] [µM] | Selectivity Ratio (5-HT uptake relative to NA uptake) [2] | IC50 [3] [µM] | ED50 [4, 6] [mg/kg] | % Inhibition of pCA induced stereotypy, time 2 (pCA-induced stereotypy; time 2 after administration of 5-HT inhibitor (time unit not given)) | % Inhibition of pCA induced stereotypy, time 6 (pCA-induced stereotypy; time 6 after administration of 5-HT inhibitor (time unit not given)) [%] | % Inhibition of pCA induced stereotypy, time 12 (pCA-induced stereotypy; time 12 after administration of 5-HT inhibitor (time unit not given)) [%] | % Inhibition of pCA induced stereotypy, time 16 (pCA-induced stereotypy; time 16 after administration of 5-HT inhibitor (time unit not given)) [%] | duration of action (in words) (pCA syndrome) | inhibition after 16 hours (pCA syndrome; 16 hours) [%] | inhibition after two hours (pCA syndrome; two hours) [%] | ED50 ([1]; same test, monohydrochloride corrected for amount of active ingredient, read-out: ED50 (inhibition of pCA induced stereotypy), panuramine) [mg/kg] | ED50 ([4]; same test, corrected for amount of base, read-out: ED50 (potentiation of 5-HTP-induced behavioural syndrome), panuramine HCl salt) [mg/kg] |
| --- | --- | --- | --- | --- | --- | --- | --- | --- | --- | --- | --- | --- | --- | --- | --- | --- |
| O=C(NC(=O)c1ccc2ncccc2c1)NC1CCN(Cc2ccc3ccccc3c2)CC1 [A, N-[[[1-(2-naphthalenylmethyl)-4-piperidinyl]amino]-carbonyl]-6-quinolinecarboxamide] | 99% | 2.7 | antagonised pCA-induced stereotypy in a dose-dependent manner | – | – | – | – | – | – | – | – | – | – | – | – | – |
| O=C(NC(=O)c1ccc2ncccc2c1)NC1CCN(Cc2ccc3ncccc3c2)CC1 [B, N-[[[1-(quinol-6-ylmethyl)-4-piperidinyl]amino]-carbonyl]-6-quinolinecarboxamide] | 99% | 6.5 | antagonised pCA-induced stereotypy in a dose-dependent manner | 0.043 | 207 | 8.9 | 7.3 | – | – | – | – | – | – | – | – | – |
| O=C(NC(=O)c1ccc2ncccc2c1)NC1CCN(Cc2ccc3cc(F)ccc3c2)CC1 [C, N-[[[1-(6-fluoro-2-naphthalenylmethyl)-4-piperidinyl]-amino]-carbonyl]-6-quinolinecarboxamide] | 99% | 2.1 | antagonised pCA-induced stereotypy in a dose-dependent manner | 0.082 | 450 | 37 | 2.4 | ca. 79% | 82.8 | 56.9 | 57.6 | – | – | – | – | – |
| O=C(NC(=O)c1ccccc1)NC1CCN(Cc2ccc3ccccc3c2)CC1 [panuramine, 1-benzoyl-3-[1-(naphth-2-ylmethyl)piperid-4-yl]urea, reference compound] | ca. 78% | – | – | 0.063 | 135 | 8.5 | – | – | – | – | – | much shorter duration of action | 12.2 | 65.1 | 16.2 | 27.4 |
